Results: PubChem BioAssay (NCI)
Values joined by “and” are separate entries in the source; they are usually repeats but may differ in a detail not shown here. Equal values may be shown once.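 Cells were grown in 96-well plates and exposed to each compound for 48 hours at five concentrations; endpoints were interpolated linearly between bracketing concentrations, or set to the highest concentration if not reached. GI50: concentration for 50% inhibition of growth. TGI denotes the concentration required for complete inhibition of growth.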

Experiments:
Assay in all cases: growth of human tumour cells (NCI), 48 h
CCRF-CEM leukemia = tested on: CCRF-CEM leukemia
HL-60(TB) leukemia = tested on: HL-60(TB) leukemia
MDA-MB-231 breast = tested on: MDA-MB-231 breast
NCI-H460 lung = tested on: NCI-H460 lung
OVCAR-8 ovarian = tested on: OVCAR-8 ovarian
SR leukemia = tested on: SR leukemia
UACC-62 melanoma = tested on: UACC-62 melanoma
UO-31 renal = tested on: UO-31 renal

Compound | GI50 (CCRF-CEM leukemia) | TGI (CCRF-CEM leukemia) | GI50 (HL-60(TB) leukemia) | TGI (HL-60(TB) leukemia) | GI50 (MDA-MB-231 breast) | TGI (MDA-MB-231 breast) | GI50 (NCI-H460 lung) | TGI (NCI-H460 lung) | GI50 (OVCAR-8 ovarian) | TGI (OVCAR-8 ovarian) | GI50 (SR leukemia) | TGI (SR leukemia) | GI50 (UACC-62 melanoma) | TGI (UACC-62 melanoma) | GI50 (UO-31 renal) | TGI (UO-31 renal)
COc1ccc(NC(=O)O[C@H]2[C@H](O[C@H]3[C@@H](O)COC(O[C@H]4C[C@H]5[C@@H]6CC=C7C[C@@H](O)CC[C@]7(C)[C@H]6CC[C@]5(C)[C@H]4[C@H](C)C(=O)CCC(C)C)[C@@H]3OC(C)=O)OC[C@@H](O)[C@@H]2O)cc1 (some centres undefined) | < 0.01 µM | 2.25 µM | 0.0139 µM | 28.2 µM | 0.318 µM | 19.2 µM | < 0.01 µM | 1.76 µM | 7.75 µM | > 100 µM | < 0.01 µM | 29.9 µM | < 0.01 µM | < 0.01 µM | 0.024 µM | 0.0978 µM
COc1cc(C2C(C#N)=C(N)Oc3cc4c(cc32)OCO4)cc2c1OCO2 (centres undefined) | 0.318 µM | > 100 µM | 0.219 µM | 0.715 µM | 0.774 µM | > 100 µM | 0.34 µM | 26.2 µM | 0.466 µM | > 100 µM | 0.0696 µM | > 100 µM | 0.285 µM | > 100 µM | 0.653 µM | > 100 µM
CC(=O)N[C@@H](Cc1ccc(OP(=O)(O)O)cc1)C(=O)N[C@H]1CCC(=O)N2CCC[C@@H](C(=O)NCc3ccc(O)cc3)N2C1=O | > 25 µM | > 25 µM | > 25 µM | > 25 µM | > 25 µM | > 25 µM | > 25 µM | > 25 µM | > 25 µM | > 25 µM | > 25 µM | > 25 µM | > 25 µM | > 25 µM | 24.2 µM | > 25 µM
N#CSCC(=O)c1ccc(Cl)cc1 | 1.5 µM | 20.6 µM |  | > 22.3 µM | 3.57 µM | 12.4 µM | 3.16 µM | 18.7 µM | 4.78 µM | 22.4 µM | 0.19 µM | > 24.6 µM | 6.4 µM | 21.5 µM | 3.23 µM | 13.5 µM
CCOC(=O)C(Cc1ccc(OC)cc1)C(=O)OCC | 3.18 µM | 28.2 µM | 2.26 µM | 8.39 µM | 7.87 µM | 27.3 µM | 4.12 µM | 15.1 µM | 5.24 µM | 32.5 µM | 1.88 µM | 5.38 µM | 4.66 µM | 17.3 µM | 5.63 µM | 19.7 µM
C[C@@H](Oc1cc(-c2cnn(C3CC4(CCCNC4)C3)c2)cnc1N)c1c(Cl)ccc(F)c1Cl (some centres undefined) | 0.936 µM | 4.77 µM | 1.16 µM | 3.01 µM | 1.29 µM | 3.11 µM | 0.826 µM | 2.53 µM | 2.06 µM | 5.93 µM | 0.0827 µM | 1.41 µM | 1.58 µM | 3.09 µM | 1.76 µM | 3.9 µM
CC(=O)OCC(=O)C1(O)C(C)CC2C3C=C(C)C4=Cc5c(cnn5-c5ccccc5)CC4(C)C3C(O)CC21C (centres undefined) |  | > 100 µM | 2.44 µM | 9.74 µM | 1.85 µM | 4.34 µM | 1.43 µM | 3.24 µM | 2.46 µM | 25.5 µM | 1.63 µM | > 27.2 µM | 1.77 µM | 3.8 µM | 2.47 µM | 8.43 µM
COC(=O)Nc1nc2ccc(Sc3ccccc3)cc2[nH]1 | 0.249 µM | > 100 µM | 0.0805 µM | 0.455 µM | 0.476 µM | 21.5 µM | 0.247 µM | 11.6 µM | 0.298 µM | 3.99 µM | 0.035 µM |  | 0.405 µM | 23.9 µM | 0.848 µM | 20.5 µM
O=C(NO)c1cnc(N2CCN(S(=O)(=O)c3ccc4ccccc4c3)CC2)nc1 | 0.0379 µM | > 64.7 µM | 0.0457 µM | 29.8 µM | 0.199 µM | 5.28 µM | 0.0535 µM | 11.9 µM | 0.0276 µM | 1.92 µM | 0.0387 µM | > 90.7 µM | 0.0374 µM | 0.22 µM | 0.0597 µM | 0.854 µM
CC[C@@]1(OC(=O)CN)C(=O)OCc2c1cc1n(c2=O)Cc2cc3c(N)c4c(cc3nc2-1)OCO4 | < 0.0001 µM | 0.551 µM | < 0.0001 µM | 0.111 µM | 0.0873 µM and 0.3 µM | > 100 µM | < 0.0001 µM |  | 0.000109 µM | 0.107 µM and 0.0128 µM | < 0.0001 µM | 0.159 µM | < 0.0001 µM | 0.0246 µM | < 0.0001 µM | 
C=C1C(=O)OC2CC3(C)OC3C3OC3C3=CC(OC3=O)C12 (centres undefined) | 1.05 µM | 3.2 µM | 2.13 µM | 4.83 µM | 8.33 µM | 22.7 µM | 19.9 µM | 41.3 µM | 3.32 µM | 19.3 µM | 2.82 µM | 7.81 µM | 9.11 µM | 22.3 µM | 2.84 µM | 7.54 µM
ClC1=C(Cl)C(Cl)=C(Cl)C1=Cc1ccc(Cl)cc1 | 0.33 µM | 2.47 µM | 1.21 µM | 5.86 µM | 0.302 µM | 1.08 µM | 0.726 µM | 2.18 µM | 0.36 µM | 2.27 µM | 0.253 µM | 1.72 µM | 0.363 µM | 1.65 µM | 0.539 µM | 2.52 µM
O=C1c2cccc3cc([N+](=O)[O-])cc(c23)C(=O)N1O |  | > 100 µM |  | > 100 µM |  | > 100 µM |  | > 100 µM |  | > 100 µM |  | > 100 µM |  | 81.4 µM |  | > 100 µM
CCOc1cc(/C=N\NC(=O)N/N=C/c2ccc(O)c(OCC)c2)ccc1O | 2.51 µM | > 100 µM | 2.5 µM | > 39.2 µM | 6.45 µM | > 100 µM | 2.88 µM | > 67.7 µM | 4.26 µM | > 100 µM | 0.354 µM | > 39.1 µM | 1.79 µM | > 100 µM | 8.47 µM | > 100 µM
N#CC[C@H](C1CCCC1)n1cc(-c2ncnc3[nH]ccc23)cn1 | 29.1 µM | > 100 µM | 22.7 µM | 60.6 µM | 23.9 µM | > 100 µM | 14.4 µM | > 100 µM | 30.3 µM | > 100 µM | 4.04 µM | 41.6 µM | 37 µM | > 100 µM | 4.53 µM | 82 µM
O=C(CC1(O)C(=O)Nc2c(Cl)ccc(Cl)c21)c1ccc(C2CC2)cc1 (centres undefined) | 0.843 µM | 20.1 µM | 0.318 µM | 10.3 µM | 2.64 µM | 21.8 µM | 0.622 µM | 9 µM | 1.43 µM | 13.4 µM | 0.106 µM | 15.3 µM | 0.508 µM | 17.4 µM | 1.58 µM | 19.6 µM
CN1CCN(c2ccc3nc4c(nc3c2C(F)(F)F)C(=O)c2ncccc2C4=O)CC1 | 2.44 µM | 7.32 µM | 1.6 µM | 5.92 µM | 2.54 µM | 7 µM | 0.273 µM | 1.32 µM | 1.97 µM | 8.96 µM | 0.446 µM | > 100 µM | 1.05 µM | 2.31 µM | 1.33 µM | 2.84 µM
CCCCCc1c(C)[nH]c(/C=c2\[nH]/c(=C3/C=c4ccccc4=N3)cc2OC)c1C | 0.0435 µM | 6.03 µM | 0.124 µM | 3.63 µM | 0.0266 µM | 0.232 µM | 0.0614 µM | 11.2 µM | 0.297 µM | 1.67 µM | 0.0335 µM | 0.529 µM | 0.0624 µM | 0.355 µM | 0.0882 µM | 0.329 µM
Brc1ccc(Br)nn1 | 0.404 µM | 3.65 µM | 1.22 µM | 4.85 µM | 1.83 µM | 4.23 µM | 3.04 µM | > 33.8 µM | 2.4 µM | 9.26 µM | 0.439 µM | 3.52 µM | 1.88 µM | 6.24 µM | 2.62 µM | 14.9 µM
COc1cc(/C=C/C(=O)c2ccc(Nc3nc(Nc4ccccc4)nc(Nc4ccc(Cl)cc4)n3)cc2)cc(OC)c1OC | 4.12 µM | > 32.5 µM | 1.18 µM | 11.3 µM | 18.5 µM | > 32.5 µM | 8.71 µM | > 32.5 µM | 3.34 µM | > 32.5 µM | 1.07 µM | 19.3 µM | 14.7 µM | > 32.5 µM | 2.46 µM | > 32.5 µM
C[C@@H]1CN2[C@H]3[C@@H]1CC[C@]31CCC(=O)O[C@]1(C)[C@@H]1CC[C@H]3CCC=C3[C@@H]12 | > 70 µM | > 70 µM | > 70 µM | > 70 µM | > 70 µM | > 70 µM | > 70 µM | > 70 µM | > 70 µM | > 70 µM | > 70 µM | > 70 µM | > 70 µM | > 70 µM | 43.5 µM | > 70 µM
Cc1cccnc1CNC1CC(NCc2ncccc2C)CC(NCc2ncccc2C)C1 (centres undefined) | 2.18 µM | 4.71 µM | 2.47 µM | 5.98 µM | 1.6 µM | 3.56 µM | 2.41 µM | 6.03 µM | 2.2 µM | 4.87 µM | 0.406 µM | 2.09 µM | 1.82 µM | 3.63 µM | 4.85 µM | 22.5 µM
